Source: patent US20250154109A1, “SODIUM CHANNEL BLOCKING COMPOUNDS, DERIVATIVES THEREOF, AND METHODS OF THEIR USE” (LATIGO BIOTHERAPEUTICS, INC, priority 2022, published 2025)
Counter-ions that a name gives are not always drawn. Like-named read-outs stand apart in the source and are kept apart here.

Target: human Nav1.8 (Homo sapiens, UniProt Q9Y5Y9)
Assay: SyncroPatch384PE assay (automated patch clamp)
Type: cell-based
Settings: human Nav1.8/b3 CHO cells
[1] = inactivated state block (P2 measurement), read-out: P2 IC50
[2] = resting state block (P1 measurement), read-out: P1 IC50

human Nav1.8, sequence (Q9Y5Y9 whole entry): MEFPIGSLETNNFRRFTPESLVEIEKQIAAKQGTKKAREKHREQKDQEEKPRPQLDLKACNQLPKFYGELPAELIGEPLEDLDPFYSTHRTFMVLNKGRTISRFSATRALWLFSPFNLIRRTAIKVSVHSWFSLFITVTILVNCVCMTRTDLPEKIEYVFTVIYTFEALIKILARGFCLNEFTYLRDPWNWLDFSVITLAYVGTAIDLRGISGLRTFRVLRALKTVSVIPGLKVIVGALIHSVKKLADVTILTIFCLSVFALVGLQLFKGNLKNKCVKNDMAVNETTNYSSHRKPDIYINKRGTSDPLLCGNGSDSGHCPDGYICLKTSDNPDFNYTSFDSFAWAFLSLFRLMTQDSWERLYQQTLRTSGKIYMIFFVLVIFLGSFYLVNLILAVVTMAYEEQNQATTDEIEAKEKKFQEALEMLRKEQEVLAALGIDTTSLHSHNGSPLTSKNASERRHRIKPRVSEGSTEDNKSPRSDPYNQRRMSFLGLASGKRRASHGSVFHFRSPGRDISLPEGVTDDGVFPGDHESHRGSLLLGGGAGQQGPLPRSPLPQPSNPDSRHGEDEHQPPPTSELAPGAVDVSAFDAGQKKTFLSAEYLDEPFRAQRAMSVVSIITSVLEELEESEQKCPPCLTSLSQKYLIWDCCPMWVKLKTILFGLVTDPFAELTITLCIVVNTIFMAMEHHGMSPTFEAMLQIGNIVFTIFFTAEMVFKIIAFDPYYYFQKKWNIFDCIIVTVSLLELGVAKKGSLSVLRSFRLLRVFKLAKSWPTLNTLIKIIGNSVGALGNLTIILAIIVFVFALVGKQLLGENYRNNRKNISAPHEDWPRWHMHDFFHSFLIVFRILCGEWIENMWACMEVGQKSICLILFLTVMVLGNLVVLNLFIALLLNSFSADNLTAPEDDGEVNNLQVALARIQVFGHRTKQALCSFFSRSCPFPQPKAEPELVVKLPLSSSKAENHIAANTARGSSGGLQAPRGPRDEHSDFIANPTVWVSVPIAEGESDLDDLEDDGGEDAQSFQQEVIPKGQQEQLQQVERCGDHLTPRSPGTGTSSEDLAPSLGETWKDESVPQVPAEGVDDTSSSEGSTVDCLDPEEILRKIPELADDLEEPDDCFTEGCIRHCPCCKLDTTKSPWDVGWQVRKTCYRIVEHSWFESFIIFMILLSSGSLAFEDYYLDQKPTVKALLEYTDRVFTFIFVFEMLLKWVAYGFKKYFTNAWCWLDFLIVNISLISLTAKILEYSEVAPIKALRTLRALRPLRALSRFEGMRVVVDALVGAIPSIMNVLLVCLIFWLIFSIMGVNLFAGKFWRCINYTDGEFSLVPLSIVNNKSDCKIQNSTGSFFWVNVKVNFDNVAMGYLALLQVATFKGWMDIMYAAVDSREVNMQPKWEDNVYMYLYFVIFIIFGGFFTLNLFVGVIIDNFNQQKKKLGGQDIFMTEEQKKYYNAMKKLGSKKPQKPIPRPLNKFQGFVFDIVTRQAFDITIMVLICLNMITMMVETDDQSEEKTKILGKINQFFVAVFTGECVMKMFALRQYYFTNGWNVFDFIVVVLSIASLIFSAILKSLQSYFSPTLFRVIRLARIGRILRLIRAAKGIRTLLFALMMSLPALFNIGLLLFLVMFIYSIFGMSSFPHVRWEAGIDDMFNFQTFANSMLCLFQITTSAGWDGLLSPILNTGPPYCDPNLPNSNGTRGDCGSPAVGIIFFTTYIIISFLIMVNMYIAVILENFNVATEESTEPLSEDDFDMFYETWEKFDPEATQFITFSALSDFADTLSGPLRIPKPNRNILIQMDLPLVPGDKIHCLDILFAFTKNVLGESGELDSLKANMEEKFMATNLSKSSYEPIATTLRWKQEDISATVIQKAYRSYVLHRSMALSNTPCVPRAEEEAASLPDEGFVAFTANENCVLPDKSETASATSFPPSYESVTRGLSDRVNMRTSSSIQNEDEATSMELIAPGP

| IC50 [1] [nM] | IC50 [2] [nM] | SMILES |
| --- | --- | --- |
| 5 to 50 | 5 to 50 | Cc1c(Cl)c(-c2cnn(C)c2)nc(N2CCCC(F)(F)CC2)c1C(=O)Nc1ccnc([S@](C)(=N)=O)c1 [Example 212, (R)-5-chloro-2-(4,4-difluoroazepan-1-yl)-4-methyl-6-(1-methyl-1H-pyrazol-4-yl)-N-(2-(S-methylsulfonimidoyl)pyridin-4-yl)nicotinamide] |
| 100 to 200 | 100 to 200 | Cc1c(-c2cnn(C)c2)cnc(N2CCCC(F)(F)CC2)c1C(=O)Nc1ccc(F)c([S@@](C)(=N)=O)c1 [Example 213, (S)-2-(4,4-difluoroazepan-1-yl)-N-(4-fluoro-3-(S-methylsulfonimidoyl)phenyl)-4-methyl-5-(1-methyl-1H-pyrazol-4-yl)nicotinamide] |
| 100 to 200 | 100 to 200 | Cc1c(-c2cnn(C)c2)cnc(N2CCCC(F)(F)CC2)c1C(=O)Nc1ccc(F)c([S@](C)(=N)=O)c1 [Example 214, (R)-2-(4,4-difluoroazepan-1-yl)-N-(4-fluoro-3-(S-methylsulfonimidoyl)phenyl)-4-methyl-5-(1-methyl-1H-pyrazol-4-yl)nicotinamide] |
| 5 to 50 | 5 to 50 | C[S@@](=N)(=O)c1cccc(NC(=O)c2cc(Cl)c(C(F)(F)F)cc2N2CCO[C@H](C(F)(F)F)C2)c1 [Example 215, 5-chloro-N-(3-((R)—S-methylsulfonimidoyl)phenyl)-4-(trifluoromethyl)-2-((S)-2-(trifluoromethyl)morpholino)benzamide] |
| 50 to 100 | 50 to 100 | C[S@@](=N)(=O)c1cccc(NC(=O)c2cc(Cl)c(C(F)(F)F)cc2N2CCO[C@@H](C(F)(F)F)C2)c1 [Example 216, 5-chloro-N-(3-((R)—S-methylsulfonimidoyl)phenyl)-4-(trifluoromethyl)-2-((R)-2-(trifluoromethyl)morpholino)benzamide] |
| 50 to 100 | 50 to 100 | C[S@@](=N)(=O)c1cc(NC(=O)c2cc(Cl)c(C(F)(F)F)cc2N2CCO[C@@H](C(F)(F)F)C2)ccn1 [Example 217, 5-chloro-N-(2-((R)—S-methylsulfonimidoyl)pyridin-4-yl)-4-(trifluoromethyl)-2-((R)-2-(trifluoromethyl)morpholino)benzamide] |
| 5 to 50 | 5 to 50 | C[S@@](=N)(=O)c1cc(NC(=O)c2cc(Cl)c(C(F)(F)F)cc2N2CCO[C@H](C(F)(F)F)C2)ccn1 [Example 218, 5-chloro-N-(2-((R)—S-methylsulfonimidoyl)pyridin-4-yl)-4-(trifluoromethyl)-2-((S)-2-(trifluoromethyl)morpholino)benzamide] |
| ≤ 5 | ≤ 5 | C[S@@](=N)(=O)c1cccc(NC(=O)c2cc(Cl)c(C(F)(F)F)cc2N2CCC(C(F)(F)F)CC2)c1 [Example 219, (R)-5-chloro-N-(3-(S-methylsulfonimidoyl)phenyl)-4-(trifluoromethyl)-2-(4-(trifluoromethyl)piperidin-1-yl)benzamide] |
| 5 to 50 | 5 to 50 | Cc1ccc(-c2nnc(N3CCCC(F)(F)CC3)c(C(=O)Nc3cccc([S@](C)(=N)=O)c3)c2C)cc1 [Example 225, (R)-3-(4,4-difluoroazepan-1-yl)-5-methyl-N-(3-(S-methylsulfonimidoyl)phenyl)-6-(p-tolyl)pyridazine-4-carboxamide] |
| ≤ 5 | ≤ 5 | C[S@@](=N)(=O)c1cccc(NC(=O)c2c(N3CCCC(F)(F)CC3)ncc(Cl)c2F)c1 [Example 226, (R)-5-chloro-2-(4,4-difluoroazepan-1-yl)-4-fluoro-N-(3-(S-methylsulfonimidoyl)phenyl)nicotinamide] |
| ≤ 5 | ≤ 5 | Cc1c(C#N)c(C(F)(F)F)nc(N2CCCC(F)(F)CC2)c1C(=O)Nc1cccc([S@@](C)(=O)=NC(=O)C(C)(C)N)c1 [Example 227, (R)-N-(3-(N-(2-amino-2-methylpropanoyl)-S-methylsulfonimidoyl)phenyl)-5-cyano-2-(4,4-difluoroazepan-1-yl)-4-methyl-6-(trifluoromethyl)nicotinamide formate] |
| ≤ 5 | ≤ 5 | CNCC(=O)N=[S@](C)(=O)c1cccc(NC(=O)c2cc(Cl)c(C(F)(F)F)cc2N2CCCC(F)(F)CC2)c1 [Example 228, (R)-5-chloro-2-(4,4-difluoroazepan-1-yl)-N-(3-(S-methyl-N-(methylglycyl)sulfonimidoyl)phenyl)-4-(trifluoromethyl)benzamide] |
| 5 to 50 | 5 to 50 | Cc1c(-c2cnn(C)c2)cnc(N2CCCC(F)(F)CC2)c1C(=O)Nc1cccc([S@@](C)(=O)=NC(=O)CO)c1 [Example 229, (R)-2-(4,4-difluoroazepan-1-yl)-N-(3-(N-(2-hydroxyacetyl)-S-methylsulfonimidoyl)phenyl)-4-methyl-5-(1-methyl-1H-pyrazol-4-yl)nicotinamide] |
| 5 to 50 | 5 to 50 | Cc1c(-c2cnn(C)c2)cnc(N2CCCC(F)(F)CC2)c1C(=O)Nc1cccc([S@@](C)(=O)=NC(=O)[C@@H](C)O)c1 [Example 230, 2-(4,4-difluoroazepan-1-yl)-N-(3-((R)-N-((R)-2-hydroxypropanoyl)-S-methylsulfonimidoyl)phenyl)-4-methyl-5-(1-methyl-1H-pyrazol-4-yl)nicotinamide] |
| 5 to 50 | 5 to 50 | Cc1c(-c2cnn(C)c2)cnc(N2CCCC(F)(F)CC2)c1C(=O)Nc1cccc([S@@](C)(=O)=NC(=O)[C@H](C)O)c1 [Example 231, 2-(4,4-difluoroazepan-1-yl)-N-(3-((R)-N-((S)-2-hydroxypropanoyl)-S-methylsulfonimidoyl)phenyl)-4-methyl-5-(1-methyl-1H-pyrazol-4-yl)nicotinamide] |
| ≤ 5 | ≤ 5 | Cc1c(C(F)(F)F)nnc(N2CCCC(F)(F)CC2)c1C(=O)Nc1cccc([S@@](C)(=O)=NC(=O)CO)c1 [Example 232, (R)-3-(4,4-difluoroazepan-1-yl)-N-(3-(N-(2-hydroxyacetyl)-S-methylsulfonimidoyl)phenyl)-5-methyl-6-(trifluoromethyl)pyridazine-4-carboxamide] |
| ≤ 5 | ≤ 5 | Cc1c(C(F)(F)F)nnc(N2CCCC(F)(F)CC2)c1C(=O)Nc1cccc([S@@](C)(=O)=NC(=O)[C@H](C)O)c1 [Example 233, 3-(4,4-difluoroazepan-1-yl)-N-(3-((R)-N-((S)-2-hydroxypropanoyl)-S-methylsulfonimidoyl)phenyl)-5-methyl-6-(trifluoromethyl)pyridazine-4-carboxamide] |
| ≤ 5 | ≤ 5 | Cc1c(C(F)(F)F)nnc(N2CCCC(F)(F)CC2)c1C(=O)Nc1cccc([S@@](C)(=O)=NC(=O)C2(N)CCC2)c1 [Example 234, (R)-N-(3-(N-(1-aminocyclobutane-1-carbonyl)-S-methylsulfonimidoyl)phenyl)-3-(4,4-difluoroazepan-1-yl)-5-methyl-6-(trifluoromethyl)pyridazine-4-carboxamide] |
| ≤ 5 | ≤ 5 | Cc1c(C(F)(F)F)nnc(N2CCCC(F)(F)CC2)c1C(=O)Nc1cccc([S@@](C)(=O)=NC(=O)C(C)(C)N)c1 [Example 235, (R)-N-(3-(N-(2-amino-2-methylpropanoyl)-S-methylsulfonimidoyl)phenyl)-3-(4,4-difluoroazepan-1-yl)-5-methyl-6-(trifluoromethyl)pyridazine-4-carboxamide] |
